From US9279134B2, “Methods for isolating bacteria” (DEINOVE, priority 2009, dated 2016)

Key:
[1] = test system: indigenous microflora; assay: Soil sample suspension maintained in presence of bleocin, growth of colonies; format: cell-based; details: 50 μg/ml bleocin
Experimental: (§1) Soil samples containing Deinococcus radiopugnans strain DRH40 were placed in suspension under conditions similar to that of example 2. In place of irradiation, the suspensions were maintained in the absence (control) or presence of 50 μg/ml or 100 μg/ml of bleocin.

[2] = test system: Deinococcus radiopugnans strain DRH40; assay: as above; format: cell-based; details: 50 μg/ml bleocin
Experimental: as §1

bleocin
effect on indigenous microflora [1]: decreases drastically | growing pink colonies (Deinococcus) [2]: pink colonies are present
